Laboratory results reported in US20030027981A1, “Urokinase-type plasminogen activator receptor” (priority 1989, published 2003).

Tests used:
[1] = tested on: cell-bound pro-u-PA; experiment: Pro-u-PA index of cell-bound u-PA on HT-1080 cells (immunocapture assay with NPGB step); format: cell-based, human; conditions: for Pro-u-PA index (%): 2 h, serum medium, all with Plg 40 μg/ml, aprotinin (200 KIU/ml), anti-Plg-1 (20 μg/ml), TA (100 μM) rows also with anti-PAI-1 10 μg/ml
Method: FIG. 27. Activation of cell-bound u-PA proenzyme in serum medium after the addition of plasminogen. Confluent layers of HT-1080 cells were incubated with MEM medium containing 10% heat-inactivated and plasminogen-depleted fetal calf serum and native human plasminogen (40 μg/ml). After the time intervals shown, aprotinin (200 KIU/ml) was added and the rinsed cells were treated with acid-glycine to recover the bound fraction of u-PA. The u-PA in the neutralized eluate was assayed by an immunocapture method, using an NPGB inactivation step to determined the pro-u-PA index (see Methods).
Cell culture supernatants were assayed for pro-u-PA and active u-PA by the following modification of an immunocapture method (Stephens et al., 1988; Stephens et al., 1987). Microtitre wells of polystyrene immunoplates (type 269620, A/S Nunc, Roskilde, Denmark) were coated overnight at 37° C. with 50 μl of a solution of goat IgG antibodies to human u-PA (cat. #398, American Diagnostica). The coating solution contained 2.5 μg of IgG per ml of […] sodium carbonate (pH 9.8). After rinsing, the wells were treated with conditioned medium ([…]) for 2 hours at 23° C., then rinsed again. Half the wells were then treated with 50 μl of freshly prepared 2 μM p-nitrophenyl guanidinobenzoate (NPGB, Sigma) (Danø, K., and E. Reich, “Plasminogen activator from cells transformed by an oncogenic virus—Inhibitors of the activator reaction”, Biochim. Biophys. Acta 566: 138-151, 1979) for 20 minutes at 37° C. The other half (controls) received 50 μl of rinsing buffer (0.05% Tween 20 in PBS). After rinsing, u-PA was assayed in all the wells by addition of 40 μl of plasminogen solution (100 μg/ml in assay buffer consisting of 50 mM sodium glycinate (pH 7.8), 0.1% Triton X-100, 0.1% gelatin and 10 mM 6-aminocaproic acid which also contained a very low concentration of plasmin (10 ng/ml)), and incubation took place for 30 minutes at 37° C. This concentration of plasmin in the plasminogen incubation was sufficient to enable full realization of the potential activity of pro-u-PA (cf. Petersen et al., 1988). […] This mixture was incubated for 30 minutes at 37° C., and the absorbancies of the wells were read at 405 nm. […]
Pro-u-PA and active u-PA bound to the cell layer were recovered for immunocapture assays by the same method as was used in the metabolic labelling (see above). […] For conditioned medium and cell-bound u-PA, the u-PA activity assayed after NPGB treatment was expressed as a percentage of the total activity obtained without NPGB treatment, and this percentage used as an index of pro-u-PA content (pro-u-PA index). […]

[2] = tested on: u-PA; experiment: u-PA activity in medium of HT-1080 cultures (immunocapture assay); format: cell-based, human
Method: Cell culture supernatants were assayed for pro-u-PA and active u-PA by the following modification of an immunocapture method (Stephens et al., 1988; Stephens et al., 1987). Microtitre wells of polystyrene immunoplates (type 269620, A/S Nunc, Roskilde, Denmark) were coated overnight at 37° C. with 50 μl of a solution of goat IgG antibodies to human u-PA (cat. #398, American Diagnostica). The coating solution contained 2.5 μg of IgG per ml of […] sodium carbonate (pH 9.8). After rinsing, the wells were treated with conditioned medium ([…]) for 2 hours at 23° C., then rinsed again. Half the wells were then treated with 50 μl of freshly prepared 2 μM p-nitrophenyl guanidinobenzoate (NPGB, Sigma) (Danø, K., and E. Reich, “Plasminogen activator from cells transformed by an oncogenic virus—Inhibitors of the activator reaction”, Biochim. Biophys. Acta 566: 138-151, 1979) for 20 minutes at 37° C. The other half (controls) received 50 μl of rinsing buffer (0.05% Tween 20 in PBS). After rinsing, u-PA was assayed in all the wells by addition of 40 μl of plasminogen solution (100 μg/ml in assay buffer consisting of 50 mM sodium glycinate (pH 7.8), 0.1% Triton X-100, 0.1% gelatin and 10 mM 6-aminocaproic acid which also contained a very low concentration of plasmin (10 ng/ml)), and incubation took place for 30 minutes at 37° C. This concentration of plasmin in the plasminogen incubation was sufficient to enable full realization of the potential activity of pro-u-PA (cf. Petersen et al., 1988). The plasmin produced by this incubation was assayed by its thioesterase activity (Green, G. D. G., and E. Shaw, “Thiobenzyl benzyloxycarbonyl-L-lysinate, substrate for a sensitive colorimetric assay for trypsin-like enzymes”, Anal. Biochem. 93: 223-226, 1979) by the addition of 200 μl of a solution containing 200 mM potassium phosphate (pH 7.5), 200 MM KCl, 0.1% Triton X-100, 220 μM Z-lysine thiobenzyl ester (Peninsula Laboratories, Belmont, Calif.) and 220 μM 5,5′-dithiobis(2-nitrobenzoic acid) (Sigma). This mixture was incubated for 30 minutes at 37° C., and the absorbancies of the wells were read at 405 nm. Active u-PA (60,000 IU/mg) was purchased from Calbiochem-Behring (La Jolla, Calif.) and pro-u-PA (potential activity 90,000 IU/mg) was obtained from American Diagnostica.
The following additions were made to cell layers growing in MEM medium (0.5 ml) containing 10% heat-inactivated and plasminogen-depleted fetal calf serum: native human plasminogen (Plg, 40 μg/ml); anti-catalytic monoclonal antibody to human u-PA (10 μg/ml); anti-catalytic monoclonal antibody to human t-PA (10 μg/ml); PAI-2 (titration equivalent of 3.6 UI u-PA/ml); anti-catalytic monoclonal antibody to human plasmin (20 μg/ml); aprotinin (200 KIU/ml); tranexamic acid (TA, as shown). The cultures were incubated for the times shown before assay of cell-bound plasmin. The incubation with plasminogen was used as the 100% control for bound plasmin.
Confluent cell layers in serum medium (0.5 ml) were preincubated for 1 hour at 37° C. with an anti-catalytic monoclonal antibody to human u-PA (10 μg/ml) or PAI-2 (titration equivalent of 3.6 IU u-PA/ml). The cells were then rinsed three times with serum-free MEM medium before incubation for 3 hours at 37° C. with MEM medium containing 10% heat-inactivated and plasminogen-depleted fetal calf serum and native human plasminogen (Plg, 40 μg/ml). The incubation with plasminogen was used as the 100% control for bound plasmin while the control for u-PA was the incubation without plasminogen.

[3] = target: laminin; conditions: immobilized laminin; cited from earlier work
[4] = target: u-PAR (Homo sapiens, UniProt Q03405); experiment: Chemical cross-linking of 125I-ATF to purified u-PAR; format: binding; conditions: unlabelled reagent 100 nM, u-PAR approx. 1 nM, 125I-ATF approx. 1 nM
Method: B) Affinity column eluate was diluted to yield an approximate concentration of u-PAR of 1 nM during the assay. The samples were preincubated alone (lane 2) or in the presence of the following unlabelled reagents at a concentration of 100 nM: bovine serum albumin (lane 3), t-PA (lane 4), plasminogen (lane 5), murine epidermal growth factor (lane 6), ATF (lane 7), active 54 kD u-PA (lane 8), DFP-inactivated 54 kD u-PA (lane 9). After preincubation for 15 min at room temperature, ^125I-labelled ATF (approximately 1 nM) was added, followed by incubation for 1 hour at 4° C. After incubation, chemical cross-linking was performed with DSS, after which the samples were analyzed by SDS-PACE on a 6-16% gradient gel under non-reducing conditions and autoradiography. […] Electrophoretic mobilities of molecular weight standard proteins are inducated (kD).
Cross-linking of u-PAR in complex mixtures or purified fractions to ^125I-labelled ATF was performed as described for solubilized receptor (Nielsen et al., 1988), except that 2 mM disuccinimidylsuberate (DSS) was used for cross-linking. Cross-linking of purified u-PAR to DFP-treated u-PA for analysis by SDS-PAGE and silver-staining was performed in the same manner, except that non-labelled DFP-treated u-PA was used as the ligand.

[5] = 3 h, serum medium with Plg 40 μg/ml, additions as b555, control without Plg = 100
[6] = 17 h, serum medium with Plg 40 μg/ml, additions as b555, control without Plg = 100

u-PAR, sequence (Q03405 23-305 limits assumed): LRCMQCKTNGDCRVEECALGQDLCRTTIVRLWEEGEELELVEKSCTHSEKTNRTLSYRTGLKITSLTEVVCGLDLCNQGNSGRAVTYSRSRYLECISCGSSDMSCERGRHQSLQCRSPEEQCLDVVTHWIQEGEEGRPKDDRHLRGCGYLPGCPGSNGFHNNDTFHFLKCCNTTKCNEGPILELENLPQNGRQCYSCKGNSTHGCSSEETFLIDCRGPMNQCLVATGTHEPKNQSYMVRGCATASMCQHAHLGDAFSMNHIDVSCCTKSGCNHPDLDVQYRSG

Row | Competition for binding and cross-linking of 125I-labelled ATF to purified u-PAR [4] | Molecule | Pro-u-PA index (%) [1] | u-PA activity in medium (%) ([2]; 3 h, Plg 40 μg/ml + TA 10 μM) | u-PA activity in medium (%) ([2]; 3 h, Plg 40 μg/ml + TA 100 μM) | u-PA activity in medium (%) ([2]; 17 h, Plg 40 μg/ml + TA 10 μM) | u-PA activity in medium (%) ([2]; 17 h, Plg 40 μg/ml + TA 100 μM) | Kd [3] | Proportion of total surface-bound u-PA present as pro-u-PA ([1]; cells incubated with human plasminogen 40 μg/ml in serum medium, plasminogen-free cultures approximately 90%) | u-PA activity in medium (%) [2, 5] | u-PA activity in medium (%) [2, 6] | u-PA activity in medium (%) ([2]; cells preincubated 1 h with inhibitor, rinsed, then 3 h with Plg 40 μg/ml in serum medium)
1 | – | NC[C@H]1CC[C@H](C(=O)O)CC1 [TA, tranexamic acid] | 88% | 116% | 92% | 87% | 95% | – | – | – | – | –
2 | no competition | Plg: native human plasminogen (glutamic acid N-terminal) purified from human plasma on lysine-Sepharose | 50% | – | – | – | – | 3 nM | approximately 10% | 111% | 83% | –
3 | – | aprotinin | 93% | – | – | – | – | – | – | 93% | 99% | –
4 | – | PAI-2: human type-2 plasminogen activator inhibitor purified from U937 cells (protein, UniProt P05120 1-415, looked up) Plasminogen activator …: MEDLCVANTLFALNLFKHLAKASPTQNLFLSPWSISSTMAMVYMGSRGSTEDQMAKVLQFNEVGANAVTPMTPENFTSCGFMQQIQKGSYPDAILQAQAADKIHSSFRSLSSAINASTGNYLLESVNKLFGEKSASFREEYIRLCQKYYSSEPQAVDFLECAEEARKKINSWVKTQTKGKIPNLLPEGSVDGDTRMVLVNAVYFKGKWKTPFEKKLNGLYPFRVNSAQRTPVQMMYLREKLNIGYIEDLKAQILELPYAGDVSMFLLLPDEIADVSTGLELLESEITYDKLNKWTSKDKMAEDEVEVYIPQFKLEEHYELRSILRSMGMEDAFNKGRANFSGMSERNDLFLSEVFHQAMVDVNEEGTEAAAGTGGVMTGRTGHGGPQFVADHPFLFLIMHKITNCILFFGRFSSP | – | – | – | – | – | – | – | 89% | 77% | 86%
